*1 amine or outer side, *2 acyl side, *3 side chain or, on linkers, in order; H or OH if unused. Where a SMILES comes first, the peptide text is derived from it. Bridges are numbered along the chain shown (N, C = ends). [ ]: non-standard residue; d: D form. The star is where a group is joined. X2 = C=C(N[*:2])c1nc(-c2nc(-c3nc(C(=O)NCCC(=O)NCCOCCOCCCCCCCl)cs3)ccc2C(=O)[*:1])cs1; X1 = C=C(N[*:2])c1nc(-c2nc(-c3nc(C(=O)OC)cs3)ccc2C(=O)[*:1])cs1; Nle = CCCC[C@H](N)C(=O)O; Dhb = C/C=C(\N)C(=O)O; Cam = NC(=O)C*
Experiments:
[1] = tested on: NFkB reporter gene activity; test: NFkB reporter gene assay in THP1-XBlue stable cell line; type: cell-based; details: read-out: inhibition (IC50) of NFkB reporter gene activity
IRAK4 = target: T1, IRAK4 (Homo sapiens, UniProt Q9NWZ3); test: Surface plasmon resonance (SPR) binding affinity to IRAK4
T1 sequence (Q9NWZ3 1-460): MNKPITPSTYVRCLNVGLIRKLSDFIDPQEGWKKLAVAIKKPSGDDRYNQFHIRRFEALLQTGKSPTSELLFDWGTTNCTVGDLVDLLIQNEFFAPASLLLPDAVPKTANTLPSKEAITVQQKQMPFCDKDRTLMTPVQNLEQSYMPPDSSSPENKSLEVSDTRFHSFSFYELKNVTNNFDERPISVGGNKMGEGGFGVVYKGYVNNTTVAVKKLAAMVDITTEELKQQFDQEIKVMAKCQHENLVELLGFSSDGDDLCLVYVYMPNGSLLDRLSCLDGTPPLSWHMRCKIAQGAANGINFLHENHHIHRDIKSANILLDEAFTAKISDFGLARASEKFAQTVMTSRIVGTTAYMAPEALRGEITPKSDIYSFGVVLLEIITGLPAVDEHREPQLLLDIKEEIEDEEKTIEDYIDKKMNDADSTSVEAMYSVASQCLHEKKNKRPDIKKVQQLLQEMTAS
Protocol: Next, the binding affinity of each of the synthesized thiopeptides (14 types excluding IR1-ct and IR15-ct in Figure 8) to the target IRAK4 and TLR10 was examined using surface plasmon resonance (SPR). […] Next, using an ADP-Glo-based kinase inhibition assay, the IC50 values of 4 types of thiopeptides for IRAK4 excluding IR1-ct and IR15-ct were evaluated.

TNIK = TNIK (Homo sapiens, UniProt Q9UKE5); test: Surface plasmon resonance (SPR) binding affinity to TNIK; details: ATP 1 mM, 15-fold higher than KM
Source text: Surface plasmon resonance (SPR) was used to evaluate the binding affinity of the thiopeptide synthesized in Example 2 to TNIK.

[2] = Metabolic stability in human serum at 37°C, LC/MS; type: in vitro ADME
Protocol: The compounds were incubated with a human serum at 37°C, and the amount of the residual test substance at various points in time was quantified by LC/MS with respect to an internal standard substance. […] Next, it was examined whether or not the half-lives of the compounds were affected by the reactivity of the Dha residue. The Dha residue may be conjugated with various serum thiols.
In addition, the metabolic stability of all of the 14 types of candidate thiopeptides was examined. The compound was incubated with the human serum at 37°C, and the amount of the residual thiopeptide at various points in time was quantified by LC/MS with respect to the internal standard substance. The half-life of the thiopeptide for TLR10 was generally as long as 38.2 hours, and the thiopeptide was stable.

TNIK, sequence (Q9UKE5 whole entry): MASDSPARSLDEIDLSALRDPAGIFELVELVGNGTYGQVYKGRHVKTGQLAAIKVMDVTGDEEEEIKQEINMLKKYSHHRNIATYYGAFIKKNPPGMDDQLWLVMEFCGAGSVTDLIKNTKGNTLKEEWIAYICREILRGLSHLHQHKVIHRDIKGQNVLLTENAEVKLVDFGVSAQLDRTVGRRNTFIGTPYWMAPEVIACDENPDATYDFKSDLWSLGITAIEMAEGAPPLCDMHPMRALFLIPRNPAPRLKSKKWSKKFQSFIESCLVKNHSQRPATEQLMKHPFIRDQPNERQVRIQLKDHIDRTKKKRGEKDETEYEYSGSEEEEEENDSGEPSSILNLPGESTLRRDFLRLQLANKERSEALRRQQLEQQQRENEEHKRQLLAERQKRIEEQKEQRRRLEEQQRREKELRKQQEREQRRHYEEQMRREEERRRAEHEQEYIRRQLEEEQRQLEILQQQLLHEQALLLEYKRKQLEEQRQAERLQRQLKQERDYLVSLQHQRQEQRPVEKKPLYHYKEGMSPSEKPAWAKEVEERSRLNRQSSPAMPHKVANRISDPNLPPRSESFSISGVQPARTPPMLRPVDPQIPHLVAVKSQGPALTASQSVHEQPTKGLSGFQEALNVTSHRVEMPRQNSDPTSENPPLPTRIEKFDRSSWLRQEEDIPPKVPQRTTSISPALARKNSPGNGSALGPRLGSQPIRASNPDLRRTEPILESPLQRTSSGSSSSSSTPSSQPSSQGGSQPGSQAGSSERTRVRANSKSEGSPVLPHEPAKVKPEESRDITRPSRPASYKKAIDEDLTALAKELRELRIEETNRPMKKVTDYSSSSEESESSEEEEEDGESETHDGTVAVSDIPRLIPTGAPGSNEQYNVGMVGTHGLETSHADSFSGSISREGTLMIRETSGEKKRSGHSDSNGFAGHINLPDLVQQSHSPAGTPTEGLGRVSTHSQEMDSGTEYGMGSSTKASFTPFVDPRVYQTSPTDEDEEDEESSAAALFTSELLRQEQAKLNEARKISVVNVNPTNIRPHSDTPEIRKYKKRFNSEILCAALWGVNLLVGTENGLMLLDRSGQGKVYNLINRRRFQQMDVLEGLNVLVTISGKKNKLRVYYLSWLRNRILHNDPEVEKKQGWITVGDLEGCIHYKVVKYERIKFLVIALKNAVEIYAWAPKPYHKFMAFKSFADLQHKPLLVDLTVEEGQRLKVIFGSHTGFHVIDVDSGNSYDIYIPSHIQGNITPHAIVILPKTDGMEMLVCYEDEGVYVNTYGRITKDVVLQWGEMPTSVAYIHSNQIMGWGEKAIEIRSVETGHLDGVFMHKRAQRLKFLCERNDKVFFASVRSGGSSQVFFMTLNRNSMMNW

Row | IC50 [1] [µM] | half-life (τ1/2) in human serum [2] [h] | further results | Compound
1 | 7.8 |  |  | C=C1NC(=O)[C@H](CCCCN)NC(=O)[C@H](Cc2ccc(O)cc2)NC(=O)[C@H]([C@@H](C)CC)NC(=O)[C@H](CCCNC(=N)N)NC(=O)[C@H](CCCNC(=N)N)NC(=O)[C@H](CCCCN)NC(=O)[C@H](Cc2ccccc2)NC(=O)[C@H](CC(C)C)NC(=O)[C@H](CCSC)NC(=O)[C@H](CO)NC(=O)[C@H](Cc2c[nH]c3ccccc23)NC(=O)c2ccc(-c3nc(C(=O)NCCC(=O)NCCOCCOCCCCCCCl)cs3)nc2-c2csc1n2 [IR1-ct] (WSMLFKRRIYK; linker N-C via X2)
2 | 7 |  |  | C=C1NC(=O)/C(=C/C)NC(=O)[C@H](Cc2c[nH]c3ccccc23)NC(=O)[C@H](Cc2c[nH]cn2)NC(=O)[C@H](Cc2c[nH]c3ccccc23)NC(=O)[C@H]([C@@H](C)O)NC(=O)[C@H]([C@@H](C)CC)NC(=O)[C@H](Cc2ccccc2)NC(=O)[C@H](CCC(N)=O)NC(=O)[C@H](CCCNC(=N)N)NC(=O)[C@H](CCCCN)NC(=O)[C@H](CCCC)NC(=O)[C@H](CO)NC(=O)[C@H](Cc2c[nH]c3ccccc23)NC(=O)c2ccc(-c3nc(C(=O)NCCC(=O)NCCOCCOCCCCCCCl)cs3)nc2-c2csc1n2 [IR15-ct] (WS[Nle]KRQFITWHW[Dhb]; linker N-C via X2)
3 |  |  | Kd (IRAK4): 0.0013 µM | C=C1NC(=O)[C@H](CCCCN)NC(=O)[C@H](Cc2ccc(O)cc2)NC(=O)[C@H]([C@@H](C)CC)NC(=O)[C@H](CCCNC(=N)N)NC(=O)[C@H](CCCNC(=N)N)NC(=O)[C@H](CCCCN)NC(=O)[C@H](Cc2ccccc2)NC(=O)[C@H](CC(C)C)NC(=O)[C@H](CCSC)NC(=O)[C@H](CO)NC(=O)[C@H](Cc2c[nH]c3ccccc23)NC(=O)c2ccc(-c3nc(C(=O)OC)cs3)nc2-c2csc1n2 [IR1] (WSMLFKRRIYK; linker N-C via X1)
4 |  | 14 | binding to TNIK in the presence of the saturated concentration of ATP (TNIK): bonded to TNIK | C=C1NC(=O)CNC(=O)[C@H](CC(N)=O)NC(=O)[C@H](CC(C)C)NC(=O)CNC(=O)[C@H](CCCCN)NC(=O)[C@H](C)NC(=O)[C@H]([C@@H](C)CC)NC(=O)[C@H](CO)NC(=O)[C@H](Cc2c[nH]c3ccccc23)NC(=O)[C@H](C)NC(=O)[C@H](Cc2c[nH]c3ccccc23)NC(=O)c2ccc(-c3nc(C(=O)OC)cs3)nc2-c2csc1n2 [TP8] (WAWSIAKGLNG; linker N-C via X1)
5 |  | 88 |  | C=C1NC(=O)[C@H](CO)NC(=O)[C@H](CSCC(N)=O)NC(=O)CNC(=O)[C@H](Cc2ccc(O)cc2)NC(=O)[C@H](C)NC(=O)[C@H](CO)NC(=O)[C@H](CC(=O)O)NC(=O)CNC(=O)[C@H](CC(C)C)NC(=O)[C@H](Cc2c[nH]c3ccccc23)NC(=O)[C@H](Cc2c[nH]c3ccccc23)NC(=O)c2ccc(-c3nc(C(=O)OC)cs3)nc2-c2csc1n2 [TP4] (WWLGDSAYGC(Cam)S; linker N-C via X1)
